In patent publication US20230150997A1, “EIF4E INHIBITORS AND USES THEREOF” (PIC Therapeutics, Inc., priority 2021, published 2023):

Target: T1, Human eIF4E (Homo sapiens, UniProt P06730)
T1 construct: Human eIF4E (aa 28-217) with a C-terminal His-tag; made in house
Test: Human eIF4E/4G2 binding assay (TR-FRET)
Settings: purified human eIF4E (aa 28-217), biotin labeled 4G2 peptide, 4 hours preincubation at room temperature
Protocol: Example 3. Compound Testing in Human eIF4E/4G2 Binding Assay
Human eIF4E (aa 28-217) with a C-terminal His-tag was expressed in E. coli in inclusion bodies. The protein was solubilized with 8 M urea and purified under denaturing conditions using nickel-charged HisTrap HP columns (GE Healthcare). The purified protein was then refolded by diluting in 20 mM Hepes pH 7.0, 0.5 M NaCl, 1 mM DTT, 1 mM EDTA, 0.5 M arginine plus 6 M urea, and then dialyzing overnight into the same buffer without the urea. The protein was further dialyzed into 20 mM Hepes, pH 6.5, 50 mM NaCl, 1 mM EDTA, 1 mM DTT, and concentrated using Hitrap SP sepharose FF columns (GE Healthcare). The concentrated protein was dialyzed into 20 mM Hepes, pH 7.0, 0.5 M NaCl, 5 mM DTT and 10% glycerol, and stored at -80° C. until use.
Test compounds (3.43 mM stock in DMSO) were diluted 2-fold in series in DMSO (10 concentration points). Compound solutions (1.2 µl/well) were added into black 384-well polypropylene microplates (Matrix, Thermal Scientific). Twenty-two microliters per well of Assay Buffer (50 mM NaPi, pH 6.5, 50 mM KCl, 1 mM DTT and 0.5 mg/ml gamma globulin) and eight microliters per well of 82.5 nM purified eIF4E in Assay Buffer were added. The samples were incubated at room temperature (20-23° C.) for 4 hours. Biotin labeled 4G2 peptide (Ac-Lys-Gln-Tyr-Asp-Arg-Glu-Phe-Leu-Leu-Asp-Phe-Gln-Phe-Met-Pro-Lys(Aha-Bio)-NH2, 1.75 µM stock in DMSO) was diluted to 0.14 µM in Assay Buffer (without DTT) and 5 µl/well was added. The samples were incubated at room temperature for 20 min. Five microliters per well of 6.4 nM Eu-streptavidin (Eu-SA, Perkin Elmer) and 80 nM Allophycocyanin (APC)-anti His antibody (Columbia Biosciences) in Assay Buffer (without DTT) were then added and the samples were incubated at room temperature for 20 min.
Assay signals were monitored by reading excitation at 340 nm and emission fluorescence at 615 nm and 665 nm on an Envision reader (Perkin Elmer). Normalized TR-FRET (time-resolved fluorescence resonance energy transfer) assay signal (Rn) was calculated by the formula: Rn = [(A-Ba-C x D)/(D-Bd)] x (Dc- Bd) • Where A is the fluorescence intensity of the sample at 665 nm, • D is the fluorescence intensity of the sample at 615 nm, • Ba and Bd are plate backgrounds at 665 nm and 615 nm, respectively, • Dc is the fluorescence intensity of 0.78 nM Eu-SA in the assay buffer at 615 nm • The cross-talk factor (C) is determined by the following formula: • C = (Ac- Ba)/(Dc-Bd) • Where Ac is the fluorescence intensity of 0.78 nM Eu-SA in the assay buffer at 665 nm.
IC50 values were calculated using xLFit program (IDBS). Table 2 below lists […] of some compounds, wherein A represents IC50 ≤ 0.5 µM; B represents 0.5 uM < IC50 ≤ 1 µM; and C represents IC50 > 1 µM.

T1 sequence (P06730 28-217): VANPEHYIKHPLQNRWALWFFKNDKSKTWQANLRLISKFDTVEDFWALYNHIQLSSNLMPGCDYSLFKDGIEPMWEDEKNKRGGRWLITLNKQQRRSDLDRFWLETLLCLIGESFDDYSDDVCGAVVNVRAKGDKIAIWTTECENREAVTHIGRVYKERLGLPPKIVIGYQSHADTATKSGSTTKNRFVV

Row | Structure (SMILES) | IC50
1 | COCCOc1ccc(-c2nc(Nc3ncc(-c4cc(C)cs4)cc3C(=O)O)sc2CC(C)C)cc1 [1-35] | ≤ 0.5 µM
2 | Cc1csc(-c2cnc(Nc3nc(-c4ccc(OC(F)F)cc4)c(CC(C)C)s3)c(C(=O)O)c2)c1 [1-36] | ≤ 0.5 µM
3 | COCCOc1ccc(-c2nc(Nc3ncc(-c4cc(C)cs4)cc3C(=O)O)sc2C2CCCC2)cc1 [1-38] | 0.5 to 1 µM
4 | Cc1csc(-c2cnc(Nc3nc(-c4ccc(OC(F)F)cc4)c(C4CCCC4)s3)c(C(=O)O)c2)c1 [1-39] | ≤ 0.5 µM
5 | CC(C)Cc1sc(Nc2ncc(-c3cccs3)cc2C(=O)O)nc1-c1ccc(O)c(Cl)c1 [I-1, 2-((4-(3-chloro-4-hydroxyphenyl)-5-isobutylthiazol-2-yl)amino)-5-(thiophen-2-yl)nicotinic acid] | ≤ 0.5 µM
6 | CNCCOc1ccc(-c2nc(Nc3ncc(-c4cccs4)cc3C(=O)O)sc2CC(C)C)cc1Cl [I-3, 2-((4-(3-chloro-4-(2-(methylamino)ethoxy)phenyl)-5-isobutylthiazol-2-yl)amino)-5-(thiophen-2-yl)nicotinic acid] | > 1 µM
7 | COc1c(Cl)cc(-c2nc(Nc3ncc(-c4cccs4)cc3C(=O)O)sc2CC(C)C)cc1Cl [I-4] | ≤ 0.5 µM
8 | CC(C)Cc1sc(Nc2ncc(-c3cccs3)cc2C(=O)O)nc1-c1ccc(OCC(F)(F)F)cc1 [I-7] | ≤ 0.5 µM
9 | CC(C)Cc1sc(Nc2ncc(-c3cccs3)cc2C(=O)O)nc1-c1ccc(OC2CC2)cc1 [I-8] | ≤ 0.5 µM
10 | CC(C)Cc1sc(Nc2ncc(-c3cccs3)cc2C(=O)O)nc1-c1ccc(OC(F)(F)F)c(Cl)c1 [I-9] | ≤ 0.5 µM
11 | CC(C)Cc1sc(Nc2ncc(-c3cccs3)cc2C(=O)O)nc1-c1ccc(OC(F)(F)F)c(F)c1 [I-10] | ≤ 0.5 µM
12 | CCOc1ccc(-c2nc(Nc3ncc(-c4cccs4)cc3C(=O)O)sc2CC(C)C)cc1 [I-11] | ≤ 0.5 µM
13 | COc1ccc(-c2nc(Nc3cc(-c4ccccc4)sc3C(=O)O)sc2CC(C)C)cc1 [I-12] | 0.5 to 1 µM
14 | CC(C)Cc1sc(Nc2ncc(-c3cccs3)cc2C(=O)O)nc1-c1ccc(O)cc1 [I-13] | > 1 µM
15 | CC(C)Cc1sc(Nc2cc(-c3ccccc3)sc2C(=O)O)nc1-c1ccc(OC2CC2)cc1 [I-14] | 0.5 to 1 µM
16 | CC(C)Cc1sc(Nc2ncc(-c3cccs3)cc2C(=O)O)nc1-c1ccc(OC(F)F)cc1 [I-15] | 0.5 to 1 µM
17 | COCCOc1ccc(-c2nc(Nc3ncc(-c4cccs4)cc3C(=O)O)sc2CC(C)C)cc1 [I-16] | ≤ 0.5 µM
18 | CC(C)Cc1sc(Nc2ncc(-c3cccs3)cc2C(=O)O)nc1-c1ccc(OCC(N)=O)cc1 [I-17, 2-((4-(4-(2-amino-2-oxoethoxy)phenyl)-5-isobutylthiazol-2-yl)amino)-5-(thiophen-2-yl)nicotinic acid] | ≤ 0.5 µM
19 | COc1ccc(-c2nc(Nc3ncc(-c4cccs4)cc3C(=O)O)sc2C2CC2)cc1 [I-18] | 0.5 to 1 µM
20 | O=C(O)c1cc(-c2cccs2)cnc1Nc1nc(-c2ccc(OC3CC3)cc2)c(C2CC2)s1 [I-19] | 0.5 to 1 µM
21 | COCCOc1ccc(-c2nc(Nc3cc(-c4ccccc4)sc3C(=O)O)sc2C2CC2)cc1 [I-20] | 0.5 to 1 µM
22 | COc1ccc(-c2nc(Nc3cc(-c4ccccc4)sc3C(=O)O)sc2C2CC2)cc1 [I-21] | 0.5 to 1 µM
23 | COCCOc1ccc(-c2nc(Nc3ncc(-c4cccs4)cc3C(=O)O)sc2C2CC2)cc1 [I-22] | 0.5 to 1 µM
24 | COCCOc1ccc(-c2nc(Nc3cc(-c4ccccc4)sc3C(=O)O)sc2CC(C)C)cc1 [I-23] | 0.5 to 1 µM
25 | O=C(O)c1sc(-c2ccccc2)cc1Nc1nc(-c2ccc(O)cc2)c(C2CC2)s1 [I-24] | > 1 µM
26 | COc1ccc(-c2nc(Nc3cc(-c4ccccc4)sc3C(=O)O)sc2C2CC2)c(F)c1 [I-25] | 0.5 to 1 µM
27 | COCCOc1ccc(-c2nc(Nc3ncc(-c4cccs4)cc3C(=O)O)sc2C2CC2)c(F)c1 [I-26] | > 1 µM

Row | Structure (SMILES) | IC50
28 | COc1ccc(-c2nc(Nc3ncc(-c4cccs4)cc3C(=O)O)sc2C2CC2)c(F)c1 [I-27] | 0.5 to 1 µM
29 | COc1ccc(-c2nc(Nc3ncc(-c4cccs4)cc3C(=O)O)sc2C2CC2)cc1F [I-28] | 0.5 to 1 µM
30 | COCCOc1ccc(-c2nc(Nc3ncc(-c4cccs4)cc3C(=O)O)sc2C2CC2)cc1F [I-29] | 0.5 to 1 µM
31 | COCCOc1ccc(-c2nc(Nc3ncc(-c4cccs4)cc3C(=O)O)sc2C(C)C)cc1F [I-31] | 0.5 to 1 µM
32 | COCCOc1ccc(-c2nc(Nc3ncc(-c4cccs4)cc3C(=O)O)sc2C2CCCC2)cc1F [I-32] | 0.5 to 1 µM
33 | Cc1ccc(-c2cnc(Nc3nc(-c4ccc(OC(F)F)cc4)c(CC(C)C)s3)c(C(=O)O)c2)s1 [I-33] | > 1 µM
34 | COCCOc1ccc(-c2nc(Nc3ncc(-c4ccc(C)s4)cc3C(=O)O)sc2CC(C)C)cc1 [I-34] | ≤ 0.5 µM
35 | COCCOc1ccc(-c2nc(Nc3ncc(-c4ccc(C)s4)cc3C(=O)O)sc2C2CCCC2)cc1 [I-37] | ≤ 0.5 µM
36 | Cc1ccc(-c2cnc(Nc3nc(-c4ccc(OC(F)F)cc4)c(C4CCCC4)s3)c(C(=O)O)c2)s1 [I-40] | ≤ 0.5 µM
37 | COCCOc1ccc(-c2nc(Nc3ncc(-c4ccc(C)s4)cc3C(=O)O)sc2CC(C)C)cc1F [I-41] | ≤ 0.5 µM
38 | COCCOc1ccc(-c2nc(Nc3ncc(-c4cc(C)cs4)cc3C(=O)O)sc2CC(C)C)cc1F [I-42] | ≤ 0.5 µM
39 | COCCOc1ccc(-c2nc(Nc3ncc(-c4ccc(C)s4)cc3C(=O)O)sc2CC(C)C)cc1Cl [I-43] | ≤ 0.5 µM
40 | COCCOc1ccc(-c2nc(Nc3ncc(-c4cc(C)cs4)cc3C(=O)O)sc2CC(C)C)cc1Cl [I-44] | ≤ 0.5 µM
41 | COCCOc1ccc(-c2nc(Nc3ncc(-c4cccs4)cc3C(=O)O)sc2CCC(C)C)cc1Cl [I-45] | ≤ 0.5 µM
42 | COCCOc1ccc(-c2nc(Nc3ncc(-c4cccs4)cc3C(=O)O)sc2CCC(C)C)cc1F [I-46] | ≤ 0.5 µM
43 | COCCCOc1ccc(-c2nc(Nc3ncc(-c4cccs4)cc3C(=O)O)sc2CC(C)C)cc1F [I-47] | ≤ 0.5 µM
44 | COCCCOc1ccc(-c2nc(Nc3ncc(-c4cccs4)cc3C(=O)O)sc2CC(C)C)cc1Cl [I-48] | ≤ 0.5 µM
45 | CCCc1sc(Nc2ncc(-c3cccs3)cc2C(=O)O)nc1-c1ccc(OCCOC)c(F)c1 [I-49] | 0.5 to 1 µM
46 | COCCOc1ccc(-c2nc(Nc3ncc(-c4cccs4)cc3C(=O)O)sc2CCOC)cc1F [I-50] | 0.5 to 1 µM
47 | COCCOc1ccc(-c2nc(Nc3ncc(-c4nccs4)cc3C(=O)O)sc2CC(C)C)cc1F [I-51] | ≤ 0.5 µM
48 | COCCOc1ccc(-c2nc(Nc3ncc(-c4cccc(F)c4)cc3C(=O)O)sc2CC(C)C)cc1F [I-52] | ≤ 0.5 µM
49 | COCCOc1ccc(-c2nc(Nc3ncc(-c4cccs4)cc3C(=O)OC)sc2CC(C)C)cc1F [I-53, methyl 2-((4-(3-fluoro-4-(2-methoxyethoxy)phenyl)-5-isobutylthiazol-2-yl)amino)-5-(thiophen-2-yl)nicotinate] | > 1 µM
50 | COCCOc1ccc(-c2nc(Nc3ncc(-c4cccs4)nc3C(=O)O)sc2CC(C)C)cc1F [I-54] | ≤ 0.5 µM
51 | COCCOc1ccc(-c2nc(Nc3ncc(-c4ccsc4)cc3C(=O)O)sc2CC(C)C)cc1F [I-55] | 0.5 to 1 µM
52 | COCCOc1ccc(-c2nc(Nc3ncc(-c4ccco4)cc3C(=O)O)sc2CC(C)C)cc1F [I-57] | 0.5 to 1 µM
53 | COCCOc1ccc(-c2nc(Nc3ncc(-c4cccs4)cc3C(=O)O)sc2CC(C)C)cc1C(F)(F)F [I-58] | ≤ 0.5 µM
54 | COCCOc1cc(-c2nc(Nc3ncc(-c4cccs4)cc3C(=O)O)sc2CC(C)C)ccc1F [I-59] | 0.5 to 1 µM
